FAM = 5(6)-carboxyfluorescein
Tested on: NSC-34 cells
Test: Evaluation of cell membrane permeability (flow cytometer, mean fluorescence intensity of cells cultured with the construct)
Type: cell-based, mouse
Details: mean fluorescence intensity (FL2 detector), 10 µM construct or FAM, 0.5% DMSO, 20 hours at 37°C, 5% CO2
Experimental: As the eukaryotic cells, NSC-34 cells (mouse motor neuron-like hybrid cell line) were used and the cell membrane permeability of the prepared construct was evaluated.
The NSC-34 cell was cultured in 10% fetal bovine serum (FBS)-containing Dulbecco's modified Eagle's medium (DMEM (Cat No. 044-29765, manufactured by FUJIFILM Wako Pure Chemical Corporation)), which is a culture medium.
The NSC-34 cell that adhered to a culture plate was cleaned with PBS and then, a 0.25%-trypsin/EDTA solution was added thereto, and incubation was performed for three minutes at 37°C. […]
Regarding the obtained cells (cell pellet), the cell membrane permeability was analyzed using a flow cytometer. […]
Using the aforementioned flow cytometer, gating based on forward scatter (FSC) and side scatter (SSC) was performed to set a gate about a cell group to be analyzed, and the fluorescence intensity was measured about the cell group in this gate. Note that the number of cells of the cell group to be analyzed was set to about 10000, and the analysis was performed. The fluorescence intensity was measured using a fluorescence detector FL2 of the flow cytometer (optimum detection wavelength around 543 nm) capable of detecting the fluorescence wavelength of FAM. […]

| Substance | MFI |
| --- | --- |
| 5(6)-carboxyfluorescein [Example 6] | 8.83 |
| Ac-KKRTLRKSNRKKR-FAM (Ac-KKRTLRKSNRKKR-{FAM}) [Example 5] | 22.4 |
